Test [1] has as its system SW480 colon cancer cells. Nature of the test: Cell viability assay (CellTiter-Blue), SW480 colon cancer cells. Type of test: cell-based. As to conditions: Homo sapiens, 96 h, four days; for pEC50: CellTiter-Blue; for inhibition at 10 µM: given where EC50 >10 μM, read-out: percent inhibition at 10 μM. The method in brief:
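SW480 cells (~2×10^3/well) exposed four days at 37 °C to 8-point 1:3 dilutions, 10 μM down to 0.0045 μM. Viability from resazurin reduction (CellTiter-Blue, ~3 h, Ex 560/Em 590); EC50 by non-linear regression, or percent inhibition at 10 μM where EC50 exceeds 10 μM.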
Background: Alamar Blue is a resazurin reagent that responds to reducing activity.

Test [2] has as its system primary human fibroblasts derived from IPF patients (LL29 cells) treated with TGF-β1. Briefly: Inhibition of the fibrotic process: αSMA staining in TGF-β1 treated primary human fibroblasts from IPF patients (LL29 cells). Type of test: cell-based. The note with it: Fibroblast, 96 h, TGF-β1 20 ng/mL, 4 days; for pEC50: % αSMA positive cells. The method in brief: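 Read-out: fraction of αSMA-positive cells by high-content imaging, SYTOX-stained dead cells excluded, normalized to TGF-β1/DMSO wells. Cells got compound (10 μM–[…], 11 points) plus TGF-β1 20 ng/mL for 4 days. EC50 from triplicate curves; above 10 μM, % inhibition at 10 μM given.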

pEC50: −log10 of the molar value.

Experimental findings from US10226453B2, “3-(1H-indol-2-yl)-1H-pyrazolo[4,3-B]pyridines and therapeutic uses thereof” (Samumed, LLC, priority 2015, dated 2019) are described below.

Usually pEC50 stands for −log10 of the EC50, conventionally taken in molar units. Low readings indicate a large EC50, high ones a small EC50. What is called inhibition is the change of the read-out against control, counted positive when it falls.

Consider `FC1(F)CCN(Cc2cncc(-c3ccc4[nH]nc(-c5cc6c(-c7ccccn7)cccc6[nH]5)c4n3)c2)C1` [Compound 166, 5-(5-((3,3-Difluoropyrrolidin-1-yl)methyl)pyridin-3-yl)-3-(4-(pyridin-2-yl)-1H-indol-2-yl)-1H-pyrazolo[4,3-b]pyridine], for which the pEC50 in test [1] was 5.93; in test [2] it was 6.79.

With `c1cc(-c2ccoc2)c2cc(-c3n[nH]c4ccc(-c5cncc(OC6CCCCC6)c5)nc34)[nH]c2c1` [Compound 715, 5-(5-(Cyclohexyloxy)pyridin-3-yl)-3-(4-(furan-3-yl)-1H-indol-2-yl)-1H-pyrazolo[4,3-b]pyridine], in test [1], the pEC50 is < 5.00 and the inhibition at 10 µM was 10.4%. Also, the pEC50 in test [2] is 5.40.

Take `Oc1cncc(-c2ccc3[nH]nc(-c4cc5c(-c6cccs6)cccc5[nH]4)c3n2)c1` [Compound 737, 5-(3-(4-(Thiophen-2-yl)-1H-indol-2-yl)-1H-pyrazolo[4,3-b]pyridin-5-yl) pyridin-3-ol]: in test [1], the pEC50 was < 5.00 and the inhibition at 10 µM is 0%. The compound further gave a pEC50 in test [2] of 5.69.

Take `CN1CCN(c2cccc3[nH]c(-c4n[nH]c5ccc(-c6cncnc6)nc45)cc23)CC1` [Compound 251, 3-(4-(4-Methylpiperazin-1l-yl)-1H-indol-2-yl)-5-(pyrimidin-5-yl)-1H-pyrazolo[4,3-b]pyridine]: the pEC50 in test [1] is < 5.00; in test [2] it was 5.11. In test [1], the inhibition at 10 µM is 15.3%.

In the case of `Fc1ccccc1-c1cccc2[nH]c(-c3n[nH]c4ccc(-c5cncc(CN6CCCCC6)c5)nc34)cc12` [Compound 71, 3-(4-(2-Fluorophenyl)-1H-indol-2-yl)-5-(5-(piperidin-1-ylmethyl)pyridin-3-yl)-1H-pyrazolo[4,3-b]pyridine], the pEC50 in test [1] is 5.97; in test [2] it was 6.14.

In the case of `FC1(F)CCN(Cc2cncc(-c3ccc4[nH]nc(-c5cc6c(-c7cccs7)cccc6[nH]5)c4n3)c2)C1` [Compound 362, 5-(5-((3,3-Difluoropyrrolidin-1-yl)methyl)pyridin-3-yl)-3-(4-(thiophen-2-yl)-1H-indol-2-yl)-1H-pyrazolo[4,3-b]pyridine], the results for the pEC50 in test [1] and in test [2] were < 5.00 and 5.89, respectively. For the same compound, the inhibition at 10 µM in test [1] was found to be 15.3%.

In the case of `CN(C)Cc1cncc(-c2ccc3[nH]nc(-c4cc5ccccc5[nH]4)c3n2)c1` [Compound 265, 1-(5-(3-(1H-Indol-2-yl)-1H-pyrazolo[4,3-b]pyridin-5-yl)pyridin-3-yl)-N,N-dimethylmethanamine], the pEC50 in test [1] was 5.53; in test [2] it was 6.28.

Consider `Fc1ccc(-c2cccc3[nH]c(-c4n[nH]c5ccc(-c6cncnc6)nc45)cc23)cc1` [Compound 55, 3-(4-(4-Fluorophenyl)-1H-indol-2-yl)-5-(pyrimidin-5-yl)-1H-pyrazolo[4,3-b] pyridine], for which, in test [1], the pEC50 is < 5.00 and the inhibition at 10 µM turned out to be 18.5%. Further, in test [2], the negative logarithm of the EC50 (pEC50) is 6.05.

On to `Fc1cccc(-c2cccc3[nH]c(-c4n[nH]c5ccc(-c6cncc(OCc7ccccc7)c6)nc45)cc23)c1` [Compound 546, 5-(5-(Benzyloxy)pyridin-3-yl)-3-(4-(3-fluorophenyl)-1H-indol-2-yl)-1H-pyrazolo[4,3-b]pyridine], for which, in test [1], the negative logarithm of the EC50 (pEC50) is < 5.00 and the inhibition at 10 µM stood at 18.1%. The compound further gave a pEC50 in test [2] of 5.84.

On to `c1cc(-c2ccoc2)c2cc(-c3n[nH]c4ccc(-c5cncc(CNCC6CCCC6)c5)nc34)[nH]c2c1` [Compound 333, 1-Cyclopentyl-N-((5-(3-(4-(furan-3-yl)-1H-indol-2-yl)-1H-pyrazolo[4,3-b]pyridin-5-yl)pyridin-3-yl)methyl)methanamine], for which the negative-log EC50 (pEC50) is 5.46 in test [1] and 6.02 in test [2].

With `Cc1ccncc1-c1ccc2[nH]nc(-c3cc4c(N5CCN(C)CC5)cccc4[nH]3)c2n1` [Compound 229, 3-(4-(4-Methylpiperazin-1-yl)-1H-indol-2-yl)-5-(4-methylpyridin-3-yl)-1H-pyrazolo[4,3-b]pyridine], the results for the pEC50 in test [1] and in test [2] were 5.32 and 5.31, respectively.

`Nc1cncc(-c2ccc3[nH]nc(-c4cc5ncccc5[nH]4)c3n2)c1` [Compound 507, 5-(3-(1H-Pyrrolo[3,2-b]pyridin-2-yl)-1H-pyrazolo[4,3-b]pyridin-5-yl) pyridin-3-amine]: the negative-log EC50 (pEC50) in test [1] is 6.02; in test [2], < 5.00. Besides, the inhibition at 10 µM in test [2] (given where EC50 >10 μM, 10 μM, read-out: percent inhibition at 10 μM) amounted to 24.5%.

For `CN(C)Cc1cncc(-c2ccc3[nH]nc(-c4cc5c(-c6cccnc6)cccc5[nH]4)c3n2)c1` [Compound 97, N,N-Dimethyl-1-(5-(3-(4-(pyridin-3-yl)-1H-indol-2-yl)-1H-pyrazolo[4,3-b]pyridin-5-yl)pyridin-3-yl)methanamine], the values for the pEC50 in test [1] and in test [2] were 6.10 and 6.35, respectively.

As to `c1cc(-c2ccncc2)c2cc(-c3n[nH]c4ccc(-c5cncc(OCCN6CCCC6)c5)nc34)[nH]c2c1` [Compound 606, 3-(4-(Pyridin-4-yl)-1H-indol-2-yl)-5-(5-(2-(pyrrolidin-1-yl)ethoxy)pyridin-3-yl)-1H-pyrazolo[4,3-b]pyridine], the pEC50 in test [1] is 5.73; in test [2], 5.89.

As for `FC1(F)CCN(Cc2cncc(-c3ccc4[nH]nc(-c5cc6ccccc6[nH]5)c4n3)c2)C1` [Compound 278, 5-(5-((3,3-Difluoropyrrolidin-1-yl)methyl)pyridin-3-yl)-3-(1H-indol-2-yl)-1H-pyrazolo[4,3-b]pyridine], the pEC50 in test [1] is 6.23; in test [2] it was 7.05.

As for `c1cc(-c2ccoc2)c2cc(-c3n[nH]c4ccc(-c5cn[nH]c5)nc34)[nH]c2c1` [Compound 711, 3-(4-(Furan-3-yl)-1H-indol-2-yl)-5-(1H-pyrazol-4-yl)-1H-pyrazolo[4,3-b] pyridine], the figures for the negative-log EC50 (pEC50) in test [1] and in test [2] were < 5.00 and 5.05, respectively. For the same compound, the inhibition at 10 µM in test [1] was determined as 12.4%.

As for `CN1CCN(c2cccc3[nH]c(-c4n[nH]c5ccc(-c6cncc(NC(=O)c7ccccc7)c6)nc45)cc23)CC1` [Compound 235, N-(5-(3-(4-(4-Methylpiperazin-1-yl)-1H-indol-2-yl)-1H-pyrazolo[4,3-b]pyridin-5-yl)pyridin-3-yl)benzamide], the results for the pEC50 in test [1] and in test [2] were 5.41 and 5.77, respectively.

On to `CCCCC(=O)Nc1cncc(-c2ccc3[nH]nc(-c4cc5c(N6CCCCC6)cccc5[nH]4)c3n2)c1` [Compound 187, N-(5-(3-(4-(Piperidin-1-yl)-1H-indol-2-yl)-1H-pyrazolo[4,3-b]pyridin-5-yl)pyridin-3-yl)pentanamide], for which the pEC50 is 5.35 in test [1] and 5.69 in test [2].

Turning to `Fc1ccccc1-c1cccc2[nH]c(-c3n[nH]c4ccc(-c5cncc(CNCc6ccccc6)c5)nc34)cc12` [Compound 80, N-Benzyl-1-(5-(3-(4-(2-fluorophenyl)-1H-indol-2-yl)-1H-pyrazolo[4,3-b]pyridin-5-yl)pyridin-3-yl)methanamine], the pEC50 in test [1] is < 5.00; in test [2] it was 5.60. In addition, the inhibition at 10 µM in test [1] turned out to be 18.5%.

In the case of `CN(C)CCNc1cc(F)cc(-c2cccc3[nH]c(-c4n[nH]c5ccc(-c6cncc(CN7CCCCC7)c6)nc45)cc23)c1` [Compound 463, N^1-(3-Fluoro-5-(2-(5-(5-(piperidin-1-ylmethyl)pyridin-3-yl)-1H-pyrazolo [4,3-b]pyridin-3-yl)-1H-indol-4-yl)phenyl)-N^2,N^2-dimethylethane-1,2-diamine], the figures for the pEC50 in test [1] and in test [2] were 5.93 and 6.11, respectively.

As to `CN(C)Cc1cncc(-c2ccc3[nH]nc(-c4cc5c(-c6ccc(F)cc6)cccc5[nH]4)c3n2)c1` [Compound 41, 1-(5-(3-(4-(4-Fluorophenyl)-1H-indol-2-yl)-1H-pyrazolo[4,3-b]pyridin-5-yl)pyridin-3-yl)-N,N-dimethylmethanamine], the pEC50 was 5.78 in test [1] and 6.26 in test [2].

As for `CN(C)CCNc1cc(F)cc(-c2cccc3[nH]c(-c4n[nH]c5ccc(-c6cccnc6)nc45)cc23)c1` [Compound 452, N^1-(3-Fluoro-5-(2-(5-(pyridin-3-yl)-1H-pyrazolo[4,3-b]pyridin-3-yl)-1H-indol-4-yl)phenyl)-N^2,N^2-dimethylethane-1,2-diamine], the pEC50 in test [1] was 6.54; in test [2], 7.42.

As for `CN(C)CCNc1cc(F)cc(-c2cccc3[nH]c(-c4n[nH]c5ccc(-c6ccccn6)nc45)cc23)c1` [Compound 476, N^1-(3-Fluoro-5-(2-(5-(pyridin-2-yl)-1H-pyrazolo[4,3-b]pyridin-3-yl)-1H-indol-4-yl)phenyl)-N^2,N^2-dimethylethane-1,2-diamine], the values for the pEC50 in test [1] and in test [2] were 5.23 and 5.67, respectively.

For the compound `c1cnc2cc(-c3n[nH]c4ccc(-c5cn[nH]c5)nc34)[nH]c2c1` [Compound 1021, 5-(1H-Pyrazol-4-yl)-3-(1H-pyrrolo[3,2-b]pyridin-2-yl)-1H-pyrazolo[4,3-b] pyridine], the pEC50 was 5.89 in test [1] and 5.86 in test [2].

`c1cc(-c2ccncc2)c2cc(-c3n[nH]c4ccc(-c5cncc(CNCC6CCCC6)c5)nc34)[nH]c2c1` [Compound 137, 1-Cyclopentyl-N-((5-(3-(4-(pyridin-4-yl)-1H-indol-2-yl)-1H-pyrazolo[4,3-b]pyridin-5-yl)pyridin-3-yl)methyl)methanamine]: in test [1], the negative-log EC50 (pEC50) was < 5.00 and the inhibition at 10 µM stood at 14.7%. Besides, the negative logarithm of the EC50 (pEC50) in test [2] was 6.15.
